Reference: patent US20220009920A1 (GB005, Inc., priority 2020, published 2022)

Assays:
Assay in all cases: Large panel kinase profiling
Type in all cases: biochemical
Settings in all cases: 1 μM test article, 1 mM ATP
CDK4/D3 = molecular target: T1, CDK4/D3 (Homo sapiens, UniProt P11802)
T1 construct: AssayQuant Technologies, Inc. (ran the panel)
Summary of the method: (§1)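 With ATP fixed at 1 mM, each kinase was exposed to 1 μM compound in a PhosphoSens CSox-Sensor reaction. Sealed plates were incubated at 30° C. and read in kinetic mode.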

EPHB2 = molecular target: T2, EPHB2 (Homo sapiens, UniProt P29323)
T2 sequence (P29323 19-1055): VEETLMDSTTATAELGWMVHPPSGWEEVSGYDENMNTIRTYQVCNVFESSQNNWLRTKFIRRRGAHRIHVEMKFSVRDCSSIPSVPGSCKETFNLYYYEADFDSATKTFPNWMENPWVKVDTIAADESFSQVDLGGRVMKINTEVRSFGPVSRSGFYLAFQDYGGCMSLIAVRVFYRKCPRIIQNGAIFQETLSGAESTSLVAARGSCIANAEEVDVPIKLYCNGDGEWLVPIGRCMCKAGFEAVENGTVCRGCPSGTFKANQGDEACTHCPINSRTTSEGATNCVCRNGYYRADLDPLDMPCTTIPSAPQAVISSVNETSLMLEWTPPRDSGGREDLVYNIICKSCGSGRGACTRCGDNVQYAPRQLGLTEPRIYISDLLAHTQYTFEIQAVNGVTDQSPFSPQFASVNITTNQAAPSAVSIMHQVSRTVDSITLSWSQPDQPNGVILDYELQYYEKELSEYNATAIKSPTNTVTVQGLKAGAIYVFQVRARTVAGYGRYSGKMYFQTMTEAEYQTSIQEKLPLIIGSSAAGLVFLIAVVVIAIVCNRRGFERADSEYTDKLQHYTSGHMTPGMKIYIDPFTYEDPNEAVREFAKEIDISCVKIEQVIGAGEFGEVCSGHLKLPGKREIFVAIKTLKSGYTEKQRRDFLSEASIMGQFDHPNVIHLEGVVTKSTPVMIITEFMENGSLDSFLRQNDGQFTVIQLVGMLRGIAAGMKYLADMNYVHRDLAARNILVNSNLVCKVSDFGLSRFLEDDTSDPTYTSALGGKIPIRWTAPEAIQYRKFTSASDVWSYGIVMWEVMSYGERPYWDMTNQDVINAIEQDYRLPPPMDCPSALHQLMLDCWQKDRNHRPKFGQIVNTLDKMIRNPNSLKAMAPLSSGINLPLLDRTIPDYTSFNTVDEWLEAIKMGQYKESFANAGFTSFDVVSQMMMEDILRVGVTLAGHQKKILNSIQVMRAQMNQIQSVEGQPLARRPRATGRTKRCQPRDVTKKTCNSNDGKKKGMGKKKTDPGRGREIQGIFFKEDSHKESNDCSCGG
Summary of the method: as §1

PTK6 = PTK6 (Homo sapiens, UniProt Q13882)
Summary of the method: as §1

ULK2 = molecular target: T3, ULK2 (Homo sapiens, UniProt Q8IYT8)
T3 construct: AssayQuant Technologies, Inc. (contract laboratory that ran the panel)
T3 sequence (Q8IYT8 1-1036): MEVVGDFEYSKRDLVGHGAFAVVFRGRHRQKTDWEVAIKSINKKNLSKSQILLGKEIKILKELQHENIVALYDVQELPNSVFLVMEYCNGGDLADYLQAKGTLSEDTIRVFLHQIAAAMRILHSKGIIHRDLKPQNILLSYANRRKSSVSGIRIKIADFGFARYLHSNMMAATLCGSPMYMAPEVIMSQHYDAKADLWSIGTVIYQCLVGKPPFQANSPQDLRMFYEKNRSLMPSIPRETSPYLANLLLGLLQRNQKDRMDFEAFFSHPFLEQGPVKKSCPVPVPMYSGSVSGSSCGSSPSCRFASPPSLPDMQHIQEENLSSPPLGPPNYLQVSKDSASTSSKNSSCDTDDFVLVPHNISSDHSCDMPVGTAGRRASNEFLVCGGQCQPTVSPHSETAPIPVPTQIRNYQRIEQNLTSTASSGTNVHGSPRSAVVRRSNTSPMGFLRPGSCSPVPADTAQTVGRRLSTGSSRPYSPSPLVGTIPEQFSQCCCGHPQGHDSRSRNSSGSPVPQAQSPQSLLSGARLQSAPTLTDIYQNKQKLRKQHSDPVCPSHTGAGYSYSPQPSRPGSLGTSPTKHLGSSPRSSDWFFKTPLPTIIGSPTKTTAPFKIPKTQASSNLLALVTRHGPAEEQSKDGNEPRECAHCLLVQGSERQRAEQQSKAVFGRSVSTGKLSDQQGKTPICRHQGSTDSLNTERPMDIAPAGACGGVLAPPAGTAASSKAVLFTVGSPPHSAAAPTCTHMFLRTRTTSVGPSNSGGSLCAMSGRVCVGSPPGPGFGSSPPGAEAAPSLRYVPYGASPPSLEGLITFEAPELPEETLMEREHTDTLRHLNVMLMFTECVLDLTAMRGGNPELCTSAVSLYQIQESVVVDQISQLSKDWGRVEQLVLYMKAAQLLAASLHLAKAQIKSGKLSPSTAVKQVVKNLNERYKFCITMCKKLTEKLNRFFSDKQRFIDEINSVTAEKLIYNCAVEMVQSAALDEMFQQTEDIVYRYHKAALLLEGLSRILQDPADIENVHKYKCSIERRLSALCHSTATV
Summary of the method: as §1

Sequence of PTK6 (Q13882 whole entry, species assumed): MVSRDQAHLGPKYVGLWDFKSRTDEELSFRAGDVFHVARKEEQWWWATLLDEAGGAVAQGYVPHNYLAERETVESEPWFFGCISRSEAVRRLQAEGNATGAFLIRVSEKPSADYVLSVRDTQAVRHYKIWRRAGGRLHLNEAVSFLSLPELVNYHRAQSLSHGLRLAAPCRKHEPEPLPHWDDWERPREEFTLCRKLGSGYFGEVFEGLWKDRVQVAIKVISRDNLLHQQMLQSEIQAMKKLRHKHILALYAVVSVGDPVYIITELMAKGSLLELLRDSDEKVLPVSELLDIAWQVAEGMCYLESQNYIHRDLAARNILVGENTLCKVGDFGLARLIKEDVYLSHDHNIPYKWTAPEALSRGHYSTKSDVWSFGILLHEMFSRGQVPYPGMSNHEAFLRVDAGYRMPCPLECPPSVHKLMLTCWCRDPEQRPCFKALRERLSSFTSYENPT
T1 sequence (P11802 whole entry, species assumed): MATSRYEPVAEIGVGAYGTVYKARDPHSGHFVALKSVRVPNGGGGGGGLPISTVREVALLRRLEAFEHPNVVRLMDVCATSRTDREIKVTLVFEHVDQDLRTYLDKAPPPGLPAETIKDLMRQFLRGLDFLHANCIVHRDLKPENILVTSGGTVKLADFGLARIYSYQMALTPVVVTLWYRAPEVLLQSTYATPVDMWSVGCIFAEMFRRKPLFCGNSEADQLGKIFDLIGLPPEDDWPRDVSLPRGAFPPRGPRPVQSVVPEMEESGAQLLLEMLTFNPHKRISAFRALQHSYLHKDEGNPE
T1 sequence (P30281 whole entry partner, species assumed): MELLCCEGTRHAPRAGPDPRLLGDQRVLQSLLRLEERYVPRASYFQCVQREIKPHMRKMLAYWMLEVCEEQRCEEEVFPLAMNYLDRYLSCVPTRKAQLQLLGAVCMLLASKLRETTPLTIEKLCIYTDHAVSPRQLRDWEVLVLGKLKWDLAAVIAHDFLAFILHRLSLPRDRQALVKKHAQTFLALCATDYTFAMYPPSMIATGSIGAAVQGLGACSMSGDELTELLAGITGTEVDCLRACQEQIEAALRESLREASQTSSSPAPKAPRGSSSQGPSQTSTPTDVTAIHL

## C=CC(=O)N1CCCC(c2c(F)cc(C(N)=O)c3[nH]c4c(c23)CCCCC4)C1 (single isomer, unassigned) [Compound 5-6]
CDK4/D3
  inhibition at 1 µM: -4.9%
EPHB2
  inhibition at 1 µM: 21.3%
PTK6
  inhibition at 1 µM: -14.1%
ULK2
  inhibition at 1 µM: -17.5%

## C=CC(=O)N1CCC[C@@H](c2c(F)cc(C(N)=O)c3[nH]c4c(c23)CCC4)C1 [Compound 10-2, (S)-8-(1-acryloylpiperidin-3-yl)-7-fluoro-1,2,3,4-tetrahydrocyclo-penta[b]indole-5-carboxamide]
CDK4/D3
  inhibition at 1 µM: -19.5%
EPHB2
  inhibition at 1 µM: 0.9%
PTK6
  inhibition at 1 µM: 10.1%
ULK2
  inhibition at 1 µM: -5.8%

## C=CC(=O)N1CCC[C@@H](c2c(F)cc(C(N)=O)c3[nH]c4c(c23)CC2(CC4)CC2)C1 [Compound 6-2, (S)-5-(1-acryloylpiperidin-3-yl)-6-fluoro-1,2,4,9-tetrahydrospiro[carbazole-3,1′-cyclopropane]-8-carboxamide]
CDK4/D3
  inhibition at 1 µM: -13%
EPHB2
  inhibition at 1 µM: 11.8%
PTK6
  inhibition at 1 µM: 22.2%
ULK2
  inhibition at 1 µM: -6.2%
